# Reference: paper PMC9928118, “Funneling modulatory peptide design with generative models: Discovery and characterization of disruptors of calcineurin protein-protein interactions” (PLOS Computational Biology, 2023)
# Key:
# [1] = target: T1, Calcineurin (Cn) catalytic domain (Cn A), PxIxIT binding site (Homo sapiens, UniProt Q08209, L343A/M347D/Y341S); assay: Fluorescence polarization (FP) competition assay against FITC-labeled PVIVIT peptide; conditions: for Ability to compete with PVIVIT for Cn binding: 100nM FITC-labeled PVIVIT peptide, 4uM Cn A, result in words; for IC50: read-out: IC50 (competition with FITC-labeled PVIVIT peptide for Cn binding), 100nM FITC-labeled PVIVIT peptide, 4uM Cn A, variable peptide concentrations, 96-well plate, triplicate, single site inhibition model fit, NB = No binding
# T1 construct: the gene encoding to residues 2–347 with substitutions Y341S, L343A, and M347D was expressed as a cleavable GST fusion protein; GST; made in house; host or cells: E. coli BL21
# T1 sequence (Q08209 2-347 Y341S/L343A/M347D): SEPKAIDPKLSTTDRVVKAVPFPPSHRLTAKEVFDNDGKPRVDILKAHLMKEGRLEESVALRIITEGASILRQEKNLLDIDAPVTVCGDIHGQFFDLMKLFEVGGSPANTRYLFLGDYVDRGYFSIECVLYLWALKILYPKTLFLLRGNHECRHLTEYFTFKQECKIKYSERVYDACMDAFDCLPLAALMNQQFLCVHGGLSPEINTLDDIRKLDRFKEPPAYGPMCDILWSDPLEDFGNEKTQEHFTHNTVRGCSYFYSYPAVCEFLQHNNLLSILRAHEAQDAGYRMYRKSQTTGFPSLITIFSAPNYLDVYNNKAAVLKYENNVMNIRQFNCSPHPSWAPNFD
# Method: Polarization levels were read and normalized values were fitted to a single site model.
# Selected peptides were synthesized and their ability to specifically bind the Cn PxIxIT binding site was evaluated by FP competition assay (Methods).
# The catalytic domain of Cn was expressed as described in [84, 85]. […] Growing in LB, after reaching to OD(600nm) = 0.8, protein expression was induced by the addition of 1 mM IPTG at 25°C. The cells were harvested after 16h and resuspended in PBS-based lysis buffer suitable for downstream purification onto GST column (Glutathione Sepharose 4 Fast Flow) of the soluble fraction after disrupted by sonication and remove of all non-soluble debris by centrifuge. Elution from the GST column was further purified by size exclusion chromatography with the superdex75 column.
# Fluorescence measurements were performed on samples arrayed in a 96-well plate using Biotek HybridH1 reader equipped with a polarized optic system. All measurements were done in triplicate.
# GST-tagged Cn [2] = assay: PEPperPRINT peptide microarray binding assay with GST-tagged Cn; conditions: max over the duplicate spots (Location on chip)
# GST-tagged Cn [3] = assay: as above; conditions: GST-tagged Cn, mean over the duplicate spots (Location on chip)
# Method in brief: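 Qualitative binding: peptides printed on a PEPperPRINT microarray were incubated overnight at 4 °C with 1 mg/ml GST-tagged Cn, then detected with Alexa-Fluor 647 anti-GST antibody. Log fluorescence was baseline-corrected, averaged over duplicate spots, Z-normalized and averaged across five repeats.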
# [4] = target: T2, catalytic domain of Calcineurin (Cn A), residues 2-347 with Y341S, L343A, M347D (UniProt Q08209 2-347, Y341S | L343A | M347D); assay: fluorescence polarisation; competition: variable concentrations of non-labeled peptide added to 100 nM FITC-labeled PVIVIT peptide and 4 uM Cn A, 96-well plate, triplicate; fitted to a single site inhibition model; conditions: both partners purified
# T2 construct: Calcineurin catalytic domain (calcineurin A), residues 2-347, with substitutions Y341S, L343A, M347D; Expressed as a cleavable GST fusion; source: E. coli BL21, purified (Glutathione Sepharose 4 Fast Flow, size exclusion on Superdex 75)
# T2 sequence (Q08209 2-347 Y341S/L343A/M347D): as above
Molecule,Chip Fluorescence (max) (GST-tagged Cn [2]),Chip Fluorescence (mean) (GST-tagged Cn [3]),IC50 [4] [µM],also measured
Ac-AAGAGVGIVITVTEAE-NH2 [rbmAKAP79],,,,Ability to compete with PVIVIT for Cn binding [1]: successfully competed with PVIVIT binding
Ac-TFHTNPQYRIKLEEPD-NH2 [rbmCAPN11_2],,,,IC50 [1]: > 257 µM
Ac-ADGAGVGIVITVTEAE-NH2 [rbmAKAP79_2],,,,Ability to compete with PVIVIT for Cn binding [1]: successfully competed with PVIVIT binding
Ac-TTAMNPQFFVQIPRTA-NH2 [CAPN11],,,,IC50 [1]: > 257 µM
Ac-RTYINPFMLFEDMGSR-NH2 [rbmSFB3],,,,IC50 [1]: > 257 µM
PNGSNPETVIKPDWTE [SeqRBM_275],1.983,0.6822,,
VEALSSRYGMATNLTG [Seqshuffled_4257],2.043,0.2313,,
PSHSIPKHSWESAVEH [SeqRBM_3394],2.053,-0.5716,,
STASLPSFNFSFLTSS [SeqNUP153_Antrostomus_carolinensis],2.477,-0.1064,,
SFWTNPQFIITLQEED [SeqRBMlowT_7307],2.363,0.8738,,
HVSSSPDVTLKPPQHR [SeqRBMlowT_2147],2.217,0.4725,,
RFYINPFVQFSDGGNN [SeqRBM_1053],2.558,-0.5027,,
GSLLIPHCDMSAGGSY [SeqRBM_2528],2.002,-0.05077,,
KAYMCPYMQFIAGGRK [SeqRBM_8989],1.932,0.7869,,
Ac-TFWTNPQYRIKLEEAD-NH2 [rbmCAPN11_3],,,,IC50 [1]: > 257 µM
RMYINPFVQFIDGGNR [SeqSFB3_Mycena_chlorophos],2.0812,-0.09268,,
HSKLIPKLSIQSPVEH [SeqRBMlowT_3447],2.177,0.373,,
Ac-ASVSNPEITVTSAETE-NH2 (cRBM-designed; source: synthetic peptide (peptide2 Inc)) [rbmRIPOR2],,,79,
"Ac-TYWTNPQFRVTLEDPD-NH2 (cRBM-designed (low temperature sampling); (Schistosoma mansoni CAPN11), 2 mutations; source: synthetic peptide (peptide2 Inc)) [rbmCAPN11]",,,257,
Ac-HVSSSPRITITPTQHR-NH2 (cRBM-designed (low temperature sampling); source: synthetic peptide (peptide2 Inc)) [rbmRIPOR2_2],,,200,
Ac-ADEAIPEITITSAELP-NH2 (cRBM-designed (low temperature sampling); source: synthetic peptide (peptide2 Inc)) [rbmTRESK_2],,,60,
Ac-AAGAGVGIVITVTEAE-NH2 (cRBM-designed (low temperature sampling); source: synthetic peptide (peptide2 Inc)) [rbmAKAP79],,,57,
Ac-ADGAGVGIVITVTEAE-NH2 (cRBM-designed (low temperature sampling); source: synthetic peptide (peptide2 Inc)) [rbmAKAP79_2],,,69,
Ac-ADEAVPQIIISAEELP-NH2 (source: synthetic peptide (peptide2 Inc)) [TRESK peptide],,,54,
Ac-ADEAIPEIVISKPEEP-NH2 (cRBM-designed (low temperature sampling); source: synthetic peptide (peptide2 Inc)) [rbmTRESK],,,14,
